Six compounds from patent US20230265116A1, “DEGRADATION OF (EGFR) BY CONJUGATION OF EGFR INHIBITORS WITH E3 LIGASE LIGAND AND METHODS OF USE” (BEIGENE, LTD., priority 2020, published 2023) can be followed below.

In experiment [1] the target is T1, EGFR L858R/T790M/C797S (BaF3-LTC cells) (Homo sapiens, UniProt P00533, C797S/L858R/T790M).
T1 construct: expressed in transfected cells; host or cells: BaF3
The experiment can be described thus: EGFR degradation HTRF assay, BaF3-LTC cells. Conditions: BaF3-LTC cells; for DC50: EGFR degradation, IC50 (DC50) from curve fit, read-out: DC50(nM) BaF3-LTC; for Dmax: maximum percentage of inhibition (degradation), read-out: Dmax (%) BaF3-LTC. The class given is cell-based. The procedure:
(§1) BaF3 WT(wild type), BaF3-LTC(L858R/T790M/C797S) and BaF3-DTC(Del19/T790M/C797S) cells are treated with compounds diluted in 0.2% DMSO cell culture medium and incubate for 16h, 37° C., 5% CO2, H1975-#36, H1975-#28, H1975-#23 and HCC827 cells are treated with compounds diluted in 0.2% DMSO cell culture medium on day 2, incubate for 16h, 37° C., 5% CO2.the final concentriation of compounds in all assay is start with 10 uM, 5-fold dilution, total 8 doses were included.
(§2) After 16h treatment, add HTRF lysis buffer to each well; seal the plate and incubate 1 hour at room temperature on a plate shaker; Once the cells are lysed, 16 μL of cell lysate are transferred to a PE 384-well HTRF detection plate; 4 μL of pre-mixed HTRF antibodies are added to each well; Cover the plate with a plate sealer, spin 1000 rpm for 1 min, Incubate overnight at room temperature; Read on BMG PheraStar with HTRF protocol (337 nm-665 nm-620 nm).
(§3) The inhibition (degradation) percentage of the compound was calculated by the following equation: Inhibition percentage of Compound=100-100×(Signal-low control)/(High control-low control), wherein signal=each test compound group
(§4) High control=Cell group with added DMSO and without compound, indicating microplate readings without EGFR degradation;
(§5) Dmax is the maximum percentage of inhibition (degradation).
(§6) The IC50 (DC50) value of a compound can be obtained by fitting the following equation
(§7) Y=Bottom+(TOP−Bottom)/(1+((IC50/X)^hillslope))
(§8) Wherein, X and Y are known values, and IC50, Hillslope, Top and Bottom are the parameters obtained by fitting with software. Y is the inhibition percentage (calculated from the equation), X is the concentration of the compound; IC50 is the concentration of the compound when the 50% inhibition is reached. The smaller the IC50 value is, the stronger the inhibitory ability of the compound is. Vice versa, the higher the IC50 value is, the weaker the inhibitory ability of the compound is; Hillslope represents the slope of the fitted curve, generally around 1*; Bottom represents the minimum value of the curve obtained by data fitting, which is generally 0%±20%; Top represents the maximum value of the curve obtained by data fitting, which is generally 100%±20%. The experimental data were fitted by calculating and analyzing with Dotmatics data analysis software.
For orientation: TR-FRET usually uses a lanthanide donor and a delayed reading to cut background.

Experiment [2] concerns EGFR Del19/T790M/C797S (H1975-clone #28). The experiment in a line: EGFR degradation HTRF assay, H1975-clone #28 DTC cells. The class given is cell-based. Conditions: H1975 # 28 DTC cells; for DC50: EGFR degradation, IC50 (DC50) from curve fit, read-out: DC50(nM) H1975 # 28 DTC; for Dmax (%) H1975 # 28 DTC: maximum percentage of inhibition (degradation). The procedure:
H1975-clone #28(Del19/T790M/C797S) and H1975-clone #23(Del19/C797S). EGFR-Del19/T790M/C797S and EGFR-Del19/C797S were stably expressed in H1975 cell lines by lentivirus-mediated over-expression, respectively. The EGFR over-expressed cells then underwent gene knockout, in which the EGFR targeting sgRNA was designed to only target the endogenous EGFR copies and preserve the exogenous EGFR copies. Followed by the gene knockout, the edited H1975 cells were seeded in 96 well plates at the concentration of 1 cell/well, cultured for about 2 weeks to allow single clones formation. The formed clones were screened by DNA sequencing and whole exon sequencing analysis for the desired edition. H1975-clone #28 and H1975-clone #23 were finally confirmed as homozygous Del19/T790M/C797S EGFR and Del19/C797S EGFR clones, respectively.
as §1, §2, §3, §4, §5, §6, §7, §8

T1 sequence (P00533 25-1210 T790M/C797S/L858R): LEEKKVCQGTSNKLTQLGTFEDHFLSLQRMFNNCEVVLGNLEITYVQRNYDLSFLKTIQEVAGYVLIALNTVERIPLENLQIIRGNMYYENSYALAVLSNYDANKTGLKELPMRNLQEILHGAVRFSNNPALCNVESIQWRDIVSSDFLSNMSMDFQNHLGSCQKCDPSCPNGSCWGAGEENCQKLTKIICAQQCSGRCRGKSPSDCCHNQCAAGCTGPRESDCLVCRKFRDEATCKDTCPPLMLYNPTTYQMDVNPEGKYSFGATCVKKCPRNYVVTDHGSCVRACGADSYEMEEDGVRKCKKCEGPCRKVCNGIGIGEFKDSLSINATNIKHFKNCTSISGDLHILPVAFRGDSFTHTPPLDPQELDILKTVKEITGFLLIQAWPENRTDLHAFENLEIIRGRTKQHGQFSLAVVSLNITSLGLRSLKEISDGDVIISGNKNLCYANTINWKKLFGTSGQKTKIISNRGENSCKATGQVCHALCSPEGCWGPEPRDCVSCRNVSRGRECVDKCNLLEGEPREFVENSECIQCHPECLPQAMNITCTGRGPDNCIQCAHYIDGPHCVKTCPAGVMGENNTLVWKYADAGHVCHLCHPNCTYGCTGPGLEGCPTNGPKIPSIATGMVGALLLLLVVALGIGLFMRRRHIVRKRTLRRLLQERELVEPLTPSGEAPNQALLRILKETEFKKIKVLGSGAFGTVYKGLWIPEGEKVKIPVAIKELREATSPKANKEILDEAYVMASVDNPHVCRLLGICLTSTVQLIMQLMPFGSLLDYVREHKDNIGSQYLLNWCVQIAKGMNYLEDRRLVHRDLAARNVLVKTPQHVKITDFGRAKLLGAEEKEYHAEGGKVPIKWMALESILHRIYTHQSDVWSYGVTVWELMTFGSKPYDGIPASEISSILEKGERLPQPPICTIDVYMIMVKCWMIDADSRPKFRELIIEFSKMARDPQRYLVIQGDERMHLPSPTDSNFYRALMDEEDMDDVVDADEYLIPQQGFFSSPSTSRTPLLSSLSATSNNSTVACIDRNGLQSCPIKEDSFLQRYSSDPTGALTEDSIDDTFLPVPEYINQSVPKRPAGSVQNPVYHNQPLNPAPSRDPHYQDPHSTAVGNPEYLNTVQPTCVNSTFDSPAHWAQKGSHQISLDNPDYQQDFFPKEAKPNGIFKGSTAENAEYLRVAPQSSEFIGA

As to `CCc1cc(Nc2ncc(Br)c(Nc3ccc4nc(C)ccc4c3P(C)(C)=O)n2)c(OC)cc1N1CCC(N2CCN(C(=O)CC3CN(c4cc(F)c([C@H]5CCC(=O)NC5=O)c(F)c4)C3)CC2)CC1` (single isomer, unassigned) [Example 573], in experiment [1], the 50% degradation concentration (DC50) (commonly the concentration giving 50% degradation) is 3.36 nM and the Dmax – broadly, the largest share of the target that was removed – stood at 97.7%. In addition, in experiment [2], the DC50 was 0.751 nM and the “Dmax (%) H1975 # 28 DTC” value is listed as 81.91%.
Take `CCc1ccc2c(P(C)(C)=O)c(Nc3nc(Nc4cc(CC)c(N5CCC(N6CCN(CCc7cc(C)cc8c7oc(=O)n8C7CCC(=O)NC7=O)CC6)CC5)cc4OC)ncc3Br)ccc2n1` (stereo not shown) [Example 442, 3-(7-(2-(4-(1-(4-((5-bromo-4-((5-(dimethylphosphoryl)-2-ethylquinolin-6-yl)amino)pyrimidin-2-yl)amino)-2-ethyl-5-methoxyphenyl)piperidin-4-yl)piperazin-1-yl)ethyl)-5-methyl-2-oxobenzo[d]oxazol-3(2H)-yl)piperidine-2,6-dione]: in experiment [1], the DC50 turned out to be 6.53 nM and the Dmax turned out to be 87%. In experiment [2], the DC50 was determined as 1.05 nM and the “Dmax (%) H1975 # 28 DTC” value came to 81.11%.
Regarding `CCc1ccc2c(P(C)(C)=O)c(Nc3nc(Nc4cc(CC)c(N5CCC(N6CCN(CCc7cc(F)cc8c7oc(=O)n8C7CCC(=O)NC7=O)CC6)CC5)cc4OC)ncc3Br)ccc2n1` (stereo not shown) [Example 443, 3-(7-(2-(4-(1-(4-((5-bromo-4-((5-(dimethylphosphoryl)-2-ethylquinolin-6-yl)amino)pyrimidin-2-yl)amino)-2-ethyl-5-methoxyphenyl)piperidin-4-yl)piperazin-1-yl)ethyl)-5-fluoro-2-oxobenzo[d]oxazol-3(2H)-yl)piperidine-2,6-dione], in experiment [1], the DC50 was 14.6 nM and the Dmax worked out at 81.4%. Further, in experiment [2], the DC50 was determined as 0.894 nM and the “Dmax (%) H1975 # 28 DTC” value is listed as 82.38%.
In the same order, the values of `CCc1ccc2c(P(C)(C)=O)c(Nc3nc(Nc4cc(CC)c(N5CCC(N6CCN(CCc7c(F)ccc8c7oc(=O)n8C7CCC(=O)NC7=O)CC6)CC5)cc4OC)ncc3Br)ccc2n1` (stereo not shown) [Example 444, 3-(7-(2-(4-(1-(4-((5-bromo-4-((5-(dimethylphosphoryl)-2-ethylquinolin-6-yl)amino)pyrimidin-2-yl)amino)-2-ethyl-5-methoxyphenyl)piperidin-4-yl)piperazin-1-yl)ethyl)-6-fluoro-2-oxobenzo[d]oxazol-3(2H)-yl)piperidine-2,6-dione] are 6.28 nM, 79.4%, 1.19 nM and 79.58%.
Take `CCc1cc(Nc2ncc(Br)c(Nc3ccc4nc(C)ccc4c3P(C)(C)=O)n2)c(OC2CC2)cc1N1CCC(N2CCN(CCc3cc(F)c([C@H]4CCC(=O)NC4=O)c(F)c3)CC2)CC1` [Example 459, (R)-3-(4-(2-(4-(1-(4-((5-bromo-4-((5-(dimethylphosphoryl)-2-methylquinolin-6-yl)amino)pyrimidin-2-yl)amino)-5-cyclopropoxy-2-ethylphenyl)piperidin-4-yl)piperazin-1-yl)ethyl)-2,6-difluorophenyl)piperidine-2,6-dione]: in experiment [2], the DC50 is 0.851 nM and the “Dmax (%) H1975 # 28 DTC” value is listed as 86.08%.
With `CCc1cc(Nc2ncc(Br)c(Nc3ccc4nc(C)ccc4c3P(C)(C)=O)n2)c(OC)cc1N1CCC(N2CCN(C(=O)[C@@H]3CCN(c4ccc([C@H]5CCC(=O)NC5=O)cc4)C3)CC2)CC1` [Example 569, (R)-3-(4-((R)-3-(4-(1-(4-((5-bromo-4-((5-(dimethylphosphoryl)-2-methylquinolin-6-yl)amino)pyrimidin-2-yl)amino)-2-ethyl-5-methoxyphenyl)piperidin-4-yl)piperazine-1-carbonyl)pyrrolidin-1-yl)phenyl)piperidine-2,6-dione], in experiment [1], the greatest degradation seen (Dmax) was 86.5%.
